One experiment has as its target T1, ABL2/ARG (Homo sapiens, UniProt P42684).
T1 construct: purchased Reaction Biology Corporation
Description: Kinase inhibition assay (Reaction Biology). Type of experiment: biochemical. The note with it: 10 μM ATP; 5-dose IC50 mode. The protocol:
(§1) Kinase assays were performed at Reaction Biology Corporation. To a freshly prepared buffer solution was added the target kinase at a concentration of 20 μM. The contents were mixed gently, and then compound 1b dissolved in DMSO was added to the reaction mixture in the appropriate concentration. The mixture was incubated at room temperature for 30 min. prior to addition of ATP to initiate the reaction. Compound 1b was tested in a 5-dose IC50 mode with 10-fold serial dilutions starting at 10 μM. Staurosporine was used as a control compound in a 10-dose IC50 mode with 3-fold serial dilutions starting at 20 μM. Reaction was carried out at 10 μM ATP concentration.

For the next experiment, the target named is T2, FGR (Homo sapiens, UniProt P09769).
T2 construct: purchased Reaction Biology Corporation
Description: Kinase inhibition assay (Reaction Biology). Type of experiment: biochemical. The note with it: 10 μM ATP; 5-dose IC50 mode. The protocol:
as §1

The target in another experiment is T3, ABL1 (Homo sapiens, UniProt P00519).
T3 construct: purchased Reaction Biology Corporation
Description: Kinase inhibition assay (Reaction Biology). Format: biochemical. As to conditions: 10 μM ATP; 5-dose IC50 mode. The protocol:
as §1

In another experiment the target is T4, RPIK2 (Homo sapiens, UniProt O43353).
T4 construct: purchased Reaction Biology Corporation
T4 sequence (O43353 whole entry): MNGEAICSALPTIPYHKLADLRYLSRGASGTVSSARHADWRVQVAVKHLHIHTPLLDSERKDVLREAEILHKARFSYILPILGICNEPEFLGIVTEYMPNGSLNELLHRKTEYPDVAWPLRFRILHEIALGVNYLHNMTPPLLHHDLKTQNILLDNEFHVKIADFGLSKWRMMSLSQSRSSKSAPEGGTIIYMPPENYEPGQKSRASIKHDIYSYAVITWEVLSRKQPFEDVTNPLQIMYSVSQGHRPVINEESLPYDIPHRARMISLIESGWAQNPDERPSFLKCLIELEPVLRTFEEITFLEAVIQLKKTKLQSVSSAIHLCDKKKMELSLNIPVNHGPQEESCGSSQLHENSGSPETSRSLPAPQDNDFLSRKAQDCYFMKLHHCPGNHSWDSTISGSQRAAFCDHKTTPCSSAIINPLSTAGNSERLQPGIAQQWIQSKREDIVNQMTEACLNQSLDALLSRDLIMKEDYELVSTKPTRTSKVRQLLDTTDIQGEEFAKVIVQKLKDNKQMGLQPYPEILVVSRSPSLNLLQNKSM
The experiment can be described thus: Kinase inhibition assay (Reaction Biology). As to conditions: 10 μM ATP; 5-dose IC50 mode. Type of experiment: biochemical. As to the method: as §1

The target in the next experiment is T5, PI3K-α (Homo sapiens, UniProt P42336).
T5 construct: purchased Reaction Biology Corporation
T5 sequence (P42336 whole entry): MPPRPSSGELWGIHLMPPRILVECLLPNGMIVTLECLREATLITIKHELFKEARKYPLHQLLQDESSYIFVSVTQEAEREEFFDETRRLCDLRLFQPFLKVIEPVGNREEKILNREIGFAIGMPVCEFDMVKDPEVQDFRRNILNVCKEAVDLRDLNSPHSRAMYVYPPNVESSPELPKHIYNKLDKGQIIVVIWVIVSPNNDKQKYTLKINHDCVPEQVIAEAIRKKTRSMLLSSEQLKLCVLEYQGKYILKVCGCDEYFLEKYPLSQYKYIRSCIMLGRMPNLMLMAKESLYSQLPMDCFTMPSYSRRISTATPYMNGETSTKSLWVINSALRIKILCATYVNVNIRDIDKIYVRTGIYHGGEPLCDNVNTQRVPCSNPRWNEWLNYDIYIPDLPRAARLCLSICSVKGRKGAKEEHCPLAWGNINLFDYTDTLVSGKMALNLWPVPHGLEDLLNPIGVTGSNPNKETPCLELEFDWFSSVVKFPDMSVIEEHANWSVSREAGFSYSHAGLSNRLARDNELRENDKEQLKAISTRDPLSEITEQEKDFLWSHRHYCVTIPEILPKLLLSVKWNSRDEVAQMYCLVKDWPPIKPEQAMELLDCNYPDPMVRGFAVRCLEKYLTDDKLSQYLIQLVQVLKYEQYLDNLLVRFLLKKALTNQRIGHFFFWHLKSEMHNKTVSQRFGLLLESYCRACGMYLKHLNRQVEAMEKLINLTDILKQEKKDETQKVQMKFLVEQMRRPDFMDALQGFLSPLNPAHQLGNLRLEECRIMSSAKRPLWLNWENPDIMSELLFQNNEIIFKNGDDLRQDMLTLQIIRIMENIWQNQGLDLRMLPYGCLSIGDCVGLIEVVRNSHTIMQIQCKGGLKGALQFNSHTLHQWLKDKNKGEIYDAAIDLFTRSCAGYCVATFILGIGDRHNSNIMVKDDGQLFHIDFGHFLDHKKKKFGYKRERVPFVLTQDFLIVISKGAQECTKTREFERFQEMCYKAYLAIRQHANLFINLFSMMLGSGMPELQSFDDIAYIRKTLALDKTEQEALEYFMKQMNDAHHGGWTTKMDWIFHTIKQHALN
T5 sequence (P27986 whole entry partner): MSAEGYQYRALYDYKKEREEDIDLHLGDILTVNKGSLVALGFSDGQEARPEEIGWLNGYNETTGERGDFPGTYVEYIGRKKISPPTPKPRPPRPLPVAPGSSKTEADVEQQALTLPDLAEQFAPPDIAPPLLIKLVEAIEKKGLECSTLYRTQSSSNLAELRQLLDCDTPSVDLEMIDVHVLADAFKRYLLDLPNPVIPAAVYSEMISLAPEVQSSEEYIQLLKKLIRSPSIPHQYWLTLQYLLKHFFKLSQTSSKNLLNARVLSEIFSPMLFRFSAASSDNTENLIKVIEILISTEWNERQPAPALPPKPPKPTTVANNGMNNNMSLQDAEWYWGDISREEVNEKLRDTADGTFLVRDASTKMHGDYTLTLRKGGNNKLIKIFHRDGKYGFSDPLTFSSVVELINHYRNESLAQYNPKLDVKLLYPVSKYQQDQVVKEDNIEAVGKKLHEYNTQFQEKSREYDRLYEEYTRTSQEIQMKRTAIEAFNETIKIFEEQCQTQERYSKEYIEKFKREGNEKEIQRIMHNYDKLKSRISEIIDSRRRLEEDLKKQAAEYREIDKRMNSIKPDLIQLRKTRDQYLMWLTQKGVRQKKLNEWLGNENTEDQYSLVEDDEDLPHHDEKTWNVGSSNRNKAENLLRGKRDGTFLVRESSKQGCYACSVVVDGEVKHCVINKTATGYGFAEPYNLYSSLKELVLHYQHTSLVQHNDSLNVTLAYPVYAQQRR
Description: Kinase inhibition assay (Reaction Biology). Type of experiment: biochemical. The note with it: Table 2; 10 μM ATP; 5-dose IC50 mode. As to the method:
as §1

Another experiment addresses T6, PI3K-δ (Homo sapiens, UniProt O00329).
T6 construct: purchased Reaction Biology Corporation
Description: Kinase inhibition assay (Reaction Biology). Type of experiment: biochemical. As to conditions: Table 2; 10 μM ATP; 5-dose IC50 mode. As to the method:
as §1

In the next experiment the target is T7, ABL1 (M351T) (Homo sapiens, UniProt P00519, M351T).
T7 construct: purchased Reaction Biology Corporation
Description: Inhibition of ABL mutants. Type of experiment: biochemical. The note with it: 10 μM ATP; 5-dose IC50 mode. The protocol:
as §1

The next experiment concerns the target T8, ABL1 (E255K) (Homo sapiens, UniProt P00519, E255K).
T8 construct: purchased Reaction Biology Corporation
The experiment can be described thus: Inhibition of ABL mutants. As to conditions: 10 μM ATP; 5-dose IC50 mode. Type of experiment: biochemical. As to the method:
as §1

A further experiment deals with T9, ABL1 (G250E) (Homo sapiens, UniProt P00519, G250E).
T9 construct: purchased Reaction Biology Corporation
Description: Inhibition of ABL mutants. Type of experiment: biochemical. The note with it: 10 μM ATP; 5-dose IC50 mode. The protocol:
as §1

The target in the next experiment is T10, ABL1 (T315I) (Homo sapiens, UniProt P00519, T315I).
T10 construct: purchased Reaction Biology Corporation
Description: Inhibition of ABL mutants. As to conditions: 10 μM ATP; 5-dose IC50 mode. Type of experiment: biochemical. As to the method:
as §1

The target in a further experiment is T11, ABL1 (Q252H) (Homo sapiens, UniProt P00519, Q252H).
T11 construct: purchased Reaction Biology Corporation
The experiment can be described thus: Inhibition of ABL mutants. Format: biochemical. As to conditions: 10 μM ATP; 5-dose IC50 mode. The protocol:
as §1

The next experiment concerns the target T12, ABL1 (Y253F) (Homo sapiens, UniProt P00519, Y253F).
T12 construct: purchased Reaction Biology Corporation
Description: Inhibition of ABL mutants. Type of experiment: biochemical. The note with it: 10 μM ATP; 5-dose IC50 mode. The protocol:
as §1

Another experiment addresses T13, ABL1 (H396P) (Homo sapiens, UniProt P00519, H396P).
T13 construct: purchased Reaction Biology Corporation
Description: Inhibition of ABL mutants. Format: biochemical. The note with it: 10 μM ATP; 5-dose IC50 mode. As to the method: as §1

The test system of experiment [1] is K562 (chronic myelogenous leukemia; leukemia cell line +ve for Bcr-Abl). Description: Cytotoxicity on K562 cancer cell line. Format: cell-based. As to conditions: Homo sapiens; K562 cells, 96 h treatment. As to the method: (§2) The effect of the compounds described herein on tumor cells was determined by the assay described by Latham et al., Oncogene 12:827-837 (1996). Tumor cells K562 (chronic myelogenous leukemia; leukemia cell line +ve for Bcr-Abl) or DU145 (prostate cancer) were plated in 12-well dishes at a cell density of 2.5×10^4 cells per well. The plated cells were treated 24h. later with a DMSO solution of a compound as described herein at multiple concentrations ranging from 0.01 μM to 100 μM. The plates were examined 96 h. later under an inverted microscope, Olympus CK-2 using a 10× objective, and compound activity was noted by physical observation. When necessary, the total number of viable cells was determined by trypsinizing the wells and counting the number of viable cells, as determined by trypan blue exclusion, using a hemacytometer.

In another experiment the target is T14, PIK3-β (Homo sapiens, UniProt P42338).
T14 construct: purchased Reaction Biology Corporation
The experiment can be described thus: Inhibition of PI3K kinases. The note with it: Table 4; 10 μM ATP; 5-dose IC50 mode. Format: biochemical. The protocol:
as §1, with “were mixed gently and then” for “were mixed gently, and then”, “at 20 µM. Reaction was” for “at 20 μM. Reaction was”

A further experiment has as its target T15, PIK3-γ (Homo sapiens, UniProt P48736).
T15 construct: purchased Reaction Biology Corporation
The experiment can be described thus: Inhibition of PI3K kinases. Format: biochemical. As to conditions: Table 4; 10 μM ATP; 5-dose IC50 mode. The protocol:
as §1, with “were mixed gently and then” for “were mixed gently, and then”, “at 20 µM. Reaction was” for “at 20 μM. Reaction was”

For another experiment, the target named is T16, PIK3-δ (Homo sapiens, UniProt O00329).
T16 construct: purchased Reaction Biology Corporation
T16 sequence (O00329 whole entry): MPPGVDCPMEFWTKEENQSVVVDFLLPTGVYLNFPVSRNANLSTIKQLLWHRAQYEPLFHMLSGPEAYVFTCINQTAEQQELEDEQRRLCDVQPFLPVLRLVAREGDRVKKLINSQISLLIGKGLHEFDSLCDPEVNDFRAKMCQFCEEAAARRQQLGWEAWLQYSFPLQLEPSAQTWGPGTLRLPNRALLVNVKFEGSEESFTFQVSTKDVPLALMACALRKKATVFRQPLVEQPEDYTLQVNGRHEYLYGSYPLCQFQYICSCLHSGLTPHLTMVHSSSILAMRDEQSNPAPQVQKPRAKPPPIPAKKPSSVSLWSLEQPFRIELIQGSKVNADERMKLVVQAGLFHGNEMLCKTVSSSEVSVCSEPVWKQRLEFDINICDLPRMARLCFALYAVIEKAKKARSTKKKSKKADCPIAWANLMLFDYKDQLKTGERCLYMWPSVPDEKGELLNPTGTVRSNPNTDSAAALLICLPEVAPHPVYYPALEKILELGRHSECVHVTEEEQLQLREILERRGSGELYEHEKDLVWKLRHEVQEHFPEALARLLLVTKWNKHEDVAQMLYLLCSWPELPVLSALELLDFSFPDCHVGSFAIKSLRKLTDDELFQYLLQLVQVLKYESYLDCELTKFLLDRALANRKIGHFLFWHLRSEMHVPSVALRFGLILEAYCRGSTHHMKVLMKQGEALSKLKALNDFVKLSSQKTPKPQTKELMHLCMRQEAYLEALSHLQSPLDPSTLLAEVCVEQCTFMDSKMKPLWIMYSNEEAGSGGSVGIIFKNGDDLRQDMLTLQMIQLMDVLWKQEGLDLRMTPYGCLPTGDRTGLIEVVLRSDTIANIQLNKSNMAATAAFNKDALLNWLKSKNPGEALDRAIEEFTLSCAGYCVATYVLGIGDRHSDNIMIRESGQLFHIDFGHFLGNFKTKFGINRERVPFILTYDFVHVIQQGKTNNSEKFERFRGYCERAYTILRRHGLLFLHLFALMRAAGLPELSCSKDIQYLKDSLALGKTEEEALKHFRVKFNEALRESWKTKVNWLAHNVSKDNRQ
T16 sequence (P27986 whole entry partner): as the sequence (P27986 whole entry partner) above
The experiment can be described thus: Inhibition of PI3K kinases. Format: biochemical. As to conditions: Table 4; 10 μM ATP; 5-dose IC50 mode. As to the method:
as §1, with “were mixed gently and then” for “were mixed gently, and then”, “at 20 µM. Reaction was” for “at 20 μM. Reaction was”

For the next experiment, the target named is T17, PIK3-α (Homo sapiens, UniProt P42336).
T17 construct: purchased Reaction Biology Corporation
T17 sequence (P42336 whole entry): as the sequence (P42336 whole entry) above
T17 sequence (P27986 whole entry partner): as the sequence (P27986 whole entry partner) above
Description: Inhibition of PI3K kinases. The note with it: Table 4; 10 μM ATP; 5-dose IC50 mode. Type of experiment: biochemical. The protocol: as §1, with “were mixed gently and then” for “were mixed gently, and then”, “at 20 µM. Reaction was” for “at 20 μM. Reaction was”

The subject of a further experiment is DU145 (prostate cancer). The experiment can be described thus: Cytotoxicity on DU145 cancer cell line. Format: cell-based. The note with it: Homo sapiens, DU-145; DU145 cells, 96 h treatment. As to the method:
as §2

T15 sequence (P48736 whole entry): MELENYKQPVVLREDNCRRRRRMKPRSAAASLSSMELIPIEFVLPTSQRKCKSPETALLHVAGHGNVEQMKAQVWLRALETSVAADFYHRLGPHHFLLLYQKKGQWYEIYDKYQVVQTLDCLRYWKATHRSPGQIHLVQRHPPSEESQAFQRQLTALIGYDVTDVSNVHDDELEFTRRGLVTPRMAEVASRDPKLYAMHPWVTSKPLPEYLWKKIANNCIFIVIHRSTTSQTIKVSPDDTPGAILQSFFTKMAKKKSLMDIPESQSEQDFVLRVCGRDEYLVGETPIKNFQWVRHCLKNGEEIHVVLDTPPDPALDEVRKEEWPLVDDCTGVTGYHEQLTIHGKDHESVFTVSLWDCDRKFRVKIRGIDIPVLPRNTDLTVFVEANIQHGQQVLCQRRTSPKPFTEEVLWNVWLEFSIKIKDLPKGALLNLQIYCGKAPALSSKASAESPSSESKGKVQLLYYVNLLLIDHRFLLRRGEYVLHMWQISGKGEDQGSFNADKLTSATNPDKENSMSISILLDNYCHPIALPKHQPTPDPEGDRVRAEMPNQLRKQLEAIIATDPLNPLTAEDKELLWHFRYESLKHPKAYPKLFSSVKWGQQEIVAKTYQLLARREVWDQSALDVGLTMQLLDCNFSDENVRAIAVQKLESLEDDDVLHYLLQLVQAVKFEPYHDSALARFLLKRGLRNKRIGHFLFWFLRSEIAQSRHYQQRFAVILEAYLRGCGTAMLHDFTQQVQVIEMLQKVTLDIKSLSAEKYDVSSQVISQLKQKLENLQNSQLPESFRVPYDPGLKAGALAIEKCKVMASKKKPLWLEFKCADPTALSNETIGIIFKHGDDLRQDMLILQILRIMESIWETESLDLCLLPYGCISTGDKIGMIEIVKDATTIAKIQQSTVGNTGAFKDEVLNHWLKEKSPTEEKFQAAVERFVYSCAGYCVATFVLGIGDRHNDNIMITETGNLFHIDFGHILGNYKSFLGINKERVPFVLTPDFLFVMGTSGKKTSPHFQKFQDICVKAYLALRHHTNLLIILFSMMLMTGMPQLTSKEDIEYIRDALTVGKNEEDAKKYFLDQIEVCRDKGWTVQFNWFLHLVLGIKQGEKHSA
T6 sequence (O00329 whole entry): as the sequence (O00329 whole entry) above
T6 sequence (P27986 whole entry partner): as the sequence (P27986 whole entry partner) above

As a reminder, the IC50 is the concentration at which inhibition is half-maximal. A higher IC50 goes with weaker potency. Consider `CN1CCN(c2ccc(Nc3ncc4c(n3)S/C(=C/c3ccc([N+](=O)[O-])cc3)C(=O)N4)cc2)CC1` [Compound 1b, (E)-2-(4-(4-Methylpiperazin-1-yl)phenylamino)-7-(4-nitrobenzylidene)-5H-pyrimido[4,5-b][1,4]thiazin-6(7H)-one], for which the IC50 is 0.03 µM at ABL2/ARG; 0.124 µM on FGR; 0.019 µM against ABL1; 0.068 µM on RPIK2; 0.013 µM on PI3K-α; 0.02 µM against PI3K-δ. In addition, the IC50 is 0.012 µM against ABL1 (M351T); 0.106 µM against ABL1 (E255K); 0.035 µM on ABL1 (G250E); 2.73 µM against ABL1 (T315I); 0.01 µM at ABL1 (Q252H); 0.06 µM at ABL1 (Y253F). Also, the IC50 against ABL1 (H396P) is 0.009 µM; in experiment [1], less than 1 µM; at PIK3-β, 0.01 µM; on PIK3-γ it was 0.022 µM; on PIK3-δ it was 0.007 µM; at PIK3-α, 0.004 µM. This molecule also returned a 50% inhibitory concentration (IC50) with DU145 (prostate cancer) of less than 1 µM.
